Laboratory results taken from a melting point compilation (Tetko et al.).

Row | Compound | melting point
1 | COc1ccc(C(=O)C(Cl)c2ccc(OC)cc2)cc1 (stereo unspecified) | 69 to 71 °C
2 | Oc1ccc(I)nc1 | 185 to 187 °C
3 | CC(C)C(Oc1ccc(Br)cc1)C(=O)O (stereo unspecified) | 105 to 107 °C
4 | Cc1cc(F)ccc1NC(=O)C=NO | 132 to 134 °C
5 | NC(=O)NC(=O)CCCCl | 179 to 181 °C
6 | Nc1ccc(Cl)c(CN2CCCCC2)c1 | 125 to 127 °C
7 | CNc1cc(-c2ccccc2)[nH]n1 | 122 to 124 °C
8 | CCN(Cc1ccc2c(c1)OCCO2)C(=O)CCl | 213 to 215 °C
9 | ON=Cc1ccc(OCc2ccncc2)cc1 | 163 to 165 °C
10 | Cc1ccc(C(=O)CCC(=O)O)s1 | 99 to 101 °C
11 | Cc1ccc(-c2cc(CBr)on2)cc1 | 86 to 88 °C
12 | CS(=O)(=O)Cc1nc(CCl)cs1 | 80 to 82 °C
13 | c1cnn(CC2CCNCC2)c1 | 45 to 47 °C
14 | O=C(O)c1cccc(S(=O)(=O)N2CCN(c3ccc(F)cc3)CC2)c1 | 129 to 131 °C
15 | CC(c1ccccc1)n1c(S)nnc1-c1ccccc1 (stereo unspecified) | 201 to 203 °C
16 | COC(=O)Cn1cnc(C#N)n1 | 53 to 55 °C
17 | CCOC(C)c1ncc(C(=O)O)s1 (stereo unspecified) | 112 to 114 °C
18 | N#Cc1ccc(F)c(CS(=O)(=O)Cl)c1 | 105 to 107 °C
19 | Nc1ncn(Cc2ccc(Cl)cc2)n1 | 156 to 158 °C

Row | Compound | melting point
20 | NC(C(=O)O)c1ccc(Cl)cc1Cl (stereo unspecified) | 215 to 217 °C
21 | Cc1ccc(NCCC#N)cc1 | 110 to 112 °C
22 | ClCc1nc(-c2ccco2)no1 | 82 to 84 °C
23 | Cc1cc(CSc2ncccc2C(=O)O)no1 | 169 to 171 °C
24 | O=C(O)c1cc2c(F)c(F)ccc2[nH]1 | 209 to 211 °C
25 | S=C=Nc1cccnc1Cl | 35 to 37 °C
26 | O=C(O)c1c[nH]nc1-c1ccncc1 | 334 to 336 °C
27 | Nc1cc(Cl)ccc1C(=O)N1CCCCC1 | 103 to 105 °C
28 | CC(C)NC(=O)CNS(=O)(=O)CCC(=O)O | 125 to 127 °C
29 | Cc1[nH]oc(=N)c1-c1cccc(Cl)c1 | 148 to 150 °C
30 | Cc1cc2n(n1)C(C(F)(F)F)CCN2 (stereo unspecified) | 169 to 171 °C
31 | O=C(O)CCc1nnc(-c2ccccc2I)o1 | 84 to 86 °C
32 | O=C(O)CCS(=O)(=O)c1ccccc1Cl | 132 to 134 °C
33 | NCC(O)COc1cccc(Cl)c1Cl (stereo unspecified) | 110 to 112 °C
34 | O=C(O)C1Cc2ccccc2CN1C(=O)c1ccco1 (stereo unspecified) | 143 to 147 °C
35 | O=C(O)CCC(=O)c1cc(Cl)sc1Cl | 117 to 119 °C
36 | [N-]=[N+]=Nc1ccc(Br)cc1Cl | 60 to 62 °C
37 | CC1CC1c1ccc(/C=C/C(=O)O)o1 (stereo unspecified) | 73 to 75 °C

Continued, values first:

Row | melting point | Compound
38 | 45 to 47 °C | CCNCC(=O)Nc1c(C)cccc1C
39 | 218 to 220 °C | CN1CCC(Oc2ccc(C(=O)O)cc2)CC1
40 | 175 to 182 °C | CC(C)NCc1nnc(-c2ccc([N+](=O)[O-])cc2)o1
41 | 69 to 71 °C | CC(C)(C)OC(=O)N1CCN(c2ccc(CN)cc2F)CC1
42 | 62 to 64 °C | COC(=O)Nc1cccc(N)c1
43 | 293 to 295 °C | O=C1Nc2cc(N3CCCC3)ccc2C1=O
44 | 70 to 72 °C | O=[N+]([O-])c1cc(Cc2ccccc2)ccc1O
45 | 179 to 181 °C | O=C(O)c1ccc([N+](=O)[O-])c(Br)n1
46 | 219 to 221 °C | CN1CC(=O)N(Cc2ccc(C(N)=O)cc2[N+](=O)[O-])C1=O
47 | 127 to 129 °C | COc1cc(C2(C(=O)O)CC2)ccc1C
48 | 161 to 163 °C | O=C(O)C1CCCCN1S(=O)(=O)c1ccc([N+](=O)[O-])cc1 (stereo unspecified)
49 | 169 to 171 °C | CC(=O)C(CN1C(=O)c2ccccc2C1=O)C(C)=O
50 | 218 to 220 °C | Cc1cc2oc(=O)cc(CCl)c2cc1Cl
51 | 186 to 188 °C | CC1CN(Cc2ccc(C(=O)O)cc2)CCO1 (stereo unspecified)
52 | 96 to 98 °C | COc1ccc2oc(C(C)=O)c(C)c2c1
53 | 162 to 164 °C | O=C(O)c1ccccc1OCc1ccc(Cl)cc1Cl
54 | 134 to 136 °C | NC(=O)COc1ccc(C=O)cc1
55 | 208 to 210 °C | CC(O)CNS(=O)(=O)c1ccc(C(=O)O)cc1 (stereo unspecified)
56 | 149 to 151 °C | CCc1[nH]nc(C(=O)O)c1[N+](=O)[O-]
